# Patent US7888319B2, “Compositions and methods for promoting wound healing and tissue regeneration” (MUSC Foundation for Research Development, priority 2004, dated 2011)
# Ends that are not written are not given here.
# Key:
# [1] = test system: 5 mm-diameter excisional skin wounds; experiment: Quantitative assessment of wound closure, tissue regeneration and tensile strength of 5 mm excisional skin wounds; format: in vivo, mouse
# Source text: ACT peptide (n=12) and control (n=8) 5 mm-diameter excisional skin wounds were generated on adult mice as described above. Quantitative assessments of wound closure rate, counts of regenerated hair follicles and tensile strength measurements were then undertaken on the wounded skin at time points up to 90 days following the initial insult. […] Similarly, at 10 days, when most wounds were nearing completion of closure, a highly significant difference was still maintained such that ACT peptide-treated wounds were on average 43% smaller than control wounds. […] Studies were undertaken of the mechanical properties of healed 5 mm diameter excisional wounds at 1 month and 3 months following injury. For mechanical property measurements, the skin samples were obtained after sacrificing the animal and evaluated using a MTS 858 Mini Bionix (MTS Systems Corporation, MN, USA) equipped with a 5 kg load cell. During measurement the skin sample was extended to break at a rate of 0.5 mm/s. Force and extension was measured at break. The tensile strength (stress) and extension to break (strain) was calculated as follows, Stress (N/mm^2)=Force at break (N)/cross-sectional area of sample (mm^2). Strain (%)=[Increase in length at break (mm)/Original length (mm)]×100. Stress and strain calculations for each wounded skin sample was normalized to a normal skin sample from a nearby area collected from the same animal. […] At 3 months, normalized stress to break of peptide-treated wound skin was on average double that of control wounded skin, although the high variance within the treatment group precluded significant mean separation from the control. […] Further, significant improvements in extensibility of peptide-treated wounds were found. […] By contrast, control wounds at 3 months remained only 60% as extensible as normal skin.
# [2] = test system: brain penetration injury; experiment: Penetration injury of brain in adult rat with hollow fiber membrane (HFM) implant; format: in vivo
# Method: (b) and (c) show low magnification survey views of sections of brain tissue (cortex) surrounding hollow fiber membrane (HFM) implants filled with ACT peptide (100 μM) plus vehicle gel (b) or collagen vehicle gel alone as control (c). In the control tissue (c), a high density of immunolabeled GFAP-positive astrocytes is observed near the site of injury caused by the HFM. The density of these cells appears to diminish slightly distal from the injury. […] Indeed, the levels of GFAP positive cells are not dissimilar to those seen in normal uninjured brain tissue. The regions of tissue within the white rectangles in figures (b) and (c) are shown at higher magnification in (d) and (e) respectively. In the brain injury treated by ACT peptide (d), it can be seen that GFAP-positive astrocytes are not only less numerous, but are also smaller than those seen in the control injury (e).
# (a) and (b) show low magnification survey views of sections of brain tissue (cortex) surrounding HFM implants (implant or injury border is shown by arrows) filled with control collagen vehicle gel or ACT peptide plus vehicle gel at 1 week following brain penetration injury. In the control tissue (b), a high density of immunolabeled GFAP-positive astrocytes and a low density of NeuN immunolabeled neurons are observed near the site of injury caused by the HFM. The density of these cells appears to diminish and increase, respectively, distal from the HFM. […] The areas in (a) and (b) proximal to the HFMs are shown at high magnification views in (c) and […], respectively. Again, in the control tissue (d) a striking increase in the density of GFAP-positive astrocytes and a reduced density of NeuN-positive neurons is observed compared to ACT peptide treated tissue (c). A complementary pattern is observed near the HFM containing ACT peptide, with NeuN positive neurons predominating over astrocytes (c).
# Anesthetized adult rats were positioned in a stereotaxic apparatus. A midline incision was made on the scalp to expose the skull. A stereotaxic drill was sighted 2 mm posterior to the bregma and 2 holes were drilled with a 1 mm spherical bit, each at 2.5 mm to the right and left of the bregma, and 3.5 mm below the dura. A cerebral lesion was made by inserting an 18-gauge needle. The coordinates were determined from the atlas by Paxinos and Watson (1986). The hollow fiber membrane (HFM) was inserted in the hole and external skin sutures were placed to cover the stab. The ACT peptide was dissolved at 100 μM concentration in a 2% collagen vehicle solution contained within the HFM. […] Reactive astrocytosis associated with inflammation and subsequently with glial scar formation follows a well characterized time course after brain injury in rodent models (Norenberg, 1994; Fawcett and Asher, 1999). […]
# [3] = test system: 5 mm diameter excisional skin wounds; experiment: Small (5 mm) excisional skin wounds in adult mice, ACT 1 to ACT 5; format: in vivo, mouse; conditions: for closure, inflammation, healing and scarring of injuries: 100 μM in pluronic gel, 50-60 μl, applied at 0 and 24 hours, 240 hour time course (10 days), vs gel without peptide; for wound closure rates (area of open wound as % of unclosed wound relative to the control): ~5 mice per condition, Mann-Whitney U-test over the time course
# Method: Anesthetized adult mice had 2 small (5 mm diameter) excisional skin wounds made by fine surgical scissors on the neck and (upper) back. The boundaries of the injuries were demarcated by a 5 mm wide circular template cut in a plastic sheet. 50-60 μl of a solution of 20% pluronic gel containing either no (control) or one of the ACT peptides (ACT 2-SEQ ID NO: 1, ACT 1-SEQ ID NO:2, ACT 3-SEQ ID NO:3, ACT 4-SEQ ID NO:4, ACT 5-SEQ ID NO:5) dissolved at concentrations of 100 μM were then applied to the excisional injuries. Control or ACT peptide-containing gel was applied subsequently 24 hours after the initial application. No further applications of control and ACT peptide-containing gel were made after the second application. […] Note that the same wound on the same animal is shown at the different time points during the healing time course. Anesthetized adult mice had 2 small (5 mm diameter) excisional skin wounds made by fine surgical scissors on the neck and (upper) back. The boundaries of the injuries were demarcated by a 5 mm wide circular template cut in a plastic sheet. 50-60 μl of a solution of 30% pluronic gel containing either no (control) or one of the ACT peptides (ACT 2—SEQ ID NO:1, ACT 1—SEQ ID NO:2, ACT 3—SEQ ID NO:3, ACT 4—SEQ ID NO:4, ACT 5—SEQ ID NO:5) dissolved at concentrations of 100 μM were then applied to the excisional injuries. Control or ACT peptide-containing gels were applied subsequently 24 hours after the initial application. No further applications of control and ACT peptide-containing gel were made after the second application. […] Note that the same wound on the same animal is shown at the different time points during the healing time course. The area of open wound was measured during the time course using NIH image according to standard protocols on multiple (˜5 mice per control or treatment condition) adult mice. These individual area measurements were then normalized to (i.e., divided by) the average area measured for the control injuries for a given time point, multiplied by 100 to give a % of unclosed wound relative to the control and then plotted against time. A Mann-Whitney U-test was used to statistically assess the effects of ACT peptides over the time course. […] These treatments provided results with significant p values.
# [4] = test system: NIH-3T3 cells; experiment: In vitro scratch injury of NIH-3T3 monolayer (repopulation, PCNA immunolabeling); format: cell-based; conditions: 30 μM, 24 hours after scratch
# Method: An NIH-3T3 monolayer was pre-treated with ACT 1 peptide (SEQ ID NO:2) for 24 hrs, and “scratch-injured” with a p200 pipette tip. The “scratch injury” was subsequently allowed to “heal” for 24 hours in the presence of (a, b) 30 μM ACT 1 peptide (SEQ ID NO:2), (c, d) 30 μM non-active control peptide (SEQ ID NO: 55), or (e, f) vehicle control solution containing no ACT peptide or control peptide. […] The repopulation of the “scratch injury” occurs in part via migration of the transformed cells crawling into the “scratch injury” area. Figures (b), (d) and (f) show proliferating cell nuclear antigen (PCNA) immunolabeling of cells in the “scratch injury” or at the injury edge.
# NIH-3T3 fibroblasts were “scratch injured” and subject to the continuous presence of 30 μM ACT 1 peptide (SEQ ID NO:2) for 24 hours or the control conditions as outlined in FIG. 2. […] The cells have been labeled with fluorescent phalloidin to aid visualization. ACT peptide-treated cells show low levels of repopulation of the scratch injury area (white double headed arrows).
# NIH-3T3 cells were grown over 2-3 days until forming a near-confluent monolayer on a tissue culture dish according to standard protocols and the monolayer was then pre-treated with ACT 1 peptide (SEQ ID NO:2) for 24 hrs, and “scratch-injured” with a p200 pipette tip. The “scratch injury” was subsequently allowed to repopulate for 24 hours in the presence of 30 μM ACT 1 peptide (SEQ ID NO:2) dissolved in the culture media (FIG. 2a, b) or in presence of two control conditions (FIG. 2c-f). In the first control condition, the “scratch-injured” cells were allowed to repopulate for 24 hours in the presence of a non-active control peptide (as in FIG. 1) dissolved in the culture media at a concentration of 30 μM (FIG. 2c, d). In the second control condition, phosphate buffered saline (PBS) was added to the culture media and the “scratch-injured” cells were allowed to repopulate in the presence of this vehicle control solution containing no ACT peptide or control peptide (FIG. 2e, f). […] The repopulation of the “scratch injury” occurs in part via migration of the transformed cells crawling into the “scratch injury” area. Figures (FIGS. 2b, d, and f) show proliferating cell nuclear antigen (PCNA) immunolabeling of cells in the “scratch injury” or at the injury edge.
# The cells were labeled with fluorescent phalloidin to aid visualization. ACT peptide-treated cells show low levels of repopulation of the scratch injury area (white double headed arrows).
sequence,measurement,setting,value
ACT peptide: alpha Connexin carboxy-Terminal polypeptide used in brain injury and Example 4 studies; sequence not stated there (RQPKIWFPNRRKPWKKRPRPDDLEI; not fully specified (N-terminus)),strain (extensibility) required to break wounds,"[1]; at 1 month, vs control wounds",modestly improved
same,"strain to break of peptide-treated wound skin, normalized to normal skin","[1]; at 3 months, normalized to normal skin, control wounds 60%",90%
same,normalized stress to break of wound skin,"[1]; at 3 months, vs control wounded skin, not significant (high variance)",double
same,increase in the number of regenerated hair follicles per unit area of the healed wound over control wounds,[1]; at 10 days,3.2 fold
same,"wound size, smaller than control wounds (average)",[1]; at 10 days,43%
same,wound closure relative to control wounds,"[1]; within 24 hours of peptide treatment, n=12 vs control n=8",significantly enhanced
same,density of GFAP-positive astrocytes adjacent the HFM,"[2]; 100 μM in 2% collagen vehicle within HFM, 1 week after injury, vs collagen vehicle gel",much lower density
same,neurons in the process of fission,"[2]; 100 μM in HFM, 1 week, high magnification view, relative to the control",high frequency of neurons in the process of fission
same,numbers of NeuN immunolabeled neurons proximal to the HFM,"[2]; 100 μM in HFM, 1 week, vs control",higher numbers
same,size of GFAP-positive astrocytes,"[2]; 100 μM in HFM, 1 week, vs control injury",smaller
"KARSDDLSV [ACT 5, 9 amino acids of the carboxy terminus of human Cx40]","closure, inflammation, healing and scarring of injuries",[3],"closed faster, were significantly less inflamed in appearance, healed faster and scarred less"
same,wound closure rates (area of open wound as % of unclosed wound relative to the control),[3]; 100 μM,significantly improved wound closure rates
PSSRASSRASSRPRPDDLEI [ACT 2],"closure, inflammation, healing and scarring of injuries",[3],"closed faster, were significantly less inflamed in appearance, healed faster and scarred less"
same,wound closure rates (area of open wound as % of unclosed wound relative to the control),[3]; 100 μM,significantly improved wound closure rates
RPRPDDLEV [ACT 3],"closure, inflammation, healing and scarring of injuries",[3],"closed faster, were significantly less inflamed in appearance, healed faster and scarred less"
same,"size of improvement in wound closure over the control, compared among peptides","[3]; 100 μM, over the time course",most pronounced improvements over the control
same,wound closure rates (area of open wound as % of unclosed wound relative to the control),[3]; 100 μM,significantly improved wound closure rates
RPRPDDVPV [ACT 4],"closure, inflammation, healing and scarring of injuries",[3],modest improvement in healing over the control
same,wound closure rates (area of open wound as % of unclosed wound relative to the control),[3]; 100 μM,"more modest, although consistent, improvement"
"RQPKIWFPNRRKPWKIELDDPRPR (not fully specified (N-terminus)) [non-active control peptide, reference compound]",proliferating cell nuclear antigen (PCNA) immunolabeling of cells in the scratch injury or at the injury edge,[4],brightly labeled proliferating cells seen
same,repopulation of the scratch injury area,[4]; 24 hrs pre-treatment,large numbers of cells
